In patent US6700013B2, “Tricyclic fused heterocycle compounds, process for preparing the same and use thereof” (Nippon Suisan Kaisha, Ltd., priority 1999, dated 2004):

Compound	melting point
CCC1C(=O)c2c(O)cc(O)cc2Sc2ccccc21 (centres unmarked) [Example 38]	175 to 177.5 °C
O=CNc1cccc(-c2ccc3c(c2)CC(=O)c2c(O)cc(O)cc2O3)c1 [Example 75]	241 to 247.08 °C
CCC1C(=O)c2cc(O)c(O)cc2Sc2cc(-c3cccc(N)c3)ccc21 (centres unmarked) [Example 176]	245.5 to 246.4 °C
O=C1Cc2cc(Cl)ccc2Sc2cc(O)cc(O)c21 [Example 15]	217.9 to 221.6 °C
CSc1ccc2c(c1)Sc1cc(O)c(O)cc1C(=O)C2 [Example 23]	232 to 236.9 °C
O=C1Cc2ccc(-c3ccc(OC(F)(F)F)cc3)cc2Oc2cc(O)cc(O)c21 [Example 97]	197.7 to 200.8 °C
O=C1Cc2ccc(-c3ccccc3)cc2Sc2cc(O)cc(O)c21 [Example 87]	209.7 to 212 °C
Oc1cc(O)c2c(c1)Oc1ccc(-c3ccco3)cc1CC2 [Example 114]	163.6 to 173.9 °C
Oc1cc(O)c2c(c1)Oc1ccc(CCc3ccccc3)cc1CC2 [Example 113]	151.8 to 152.7 °C
O=C1Cc2cc(-c3ccc(O)c(O)c3)ccc2Oc2cc(O)cc(O)c21 [Example 93]	> 250 °C
Nc1cccc(-c2ccc3c(c2)CCc2c(O)cc(O)cc2O3)c1 [Example 119]	197.2 to 199.3 °C
C[Si](C)(C)CCc1ccc2c(c1)CCc1c(O)cc(O)cc1O2	125.2 to 126.9 °C
O=C1Cc2cc(-c3cccs3)ccc2Oc2cc(O)cc(O)c21 [Example 58]	199.9 to 201 °C
ON=C1Cc2ccccc2Oc2cc(O)cc(O)c21 [Example 24]	208 to 213.7 °C
CC1(C)C(=O)c2cc(O)c(O)cc2Sc2ccccc21 [Example 31]	194.2 to 196.1 °C
O=C1Cc2cc(Br)ccc2Sc2cc(O)c(O)cc21 [Example 22]	285.7 °C (dec.)
Oc1cc(O)c2c(c1)Oc1cc(-c3cccc(Cl)c3)ccc1CC2 [Example 118]	137.1 to 143.2 °C
O=C1Cc2ccc(I)cc2Sc2cc(O)cc(O)c21 [Example 8, 3-Iodo-7,9-dihydroxy-10,11-dihydrodibenzo[b,f]thiepin-10-one]	> 250 °C (dec.)
CCC1C(=O)c2cc(O)c(O)cc2Sc2ccc(Br)cc21 (centres unmarked) [Example 44]	235.6 to 237.4 °C
CC(C)(C)c1ccc2c(c1)CCc1c(O)cc(O)cc1S2 [Example 137]	151.7 to 153.7 °C
O=C1Cc2ccc(-c3cccc(C(F)(F)F)c3)cc2Oc2cc(O)cc(O)c21 [Example 73]	183 to 184.7 °C
O=C1Cc2ccc(-c3cccc(Cl)c3)cc2Sc2cc(O)cc(O)c21 [Example 90]	180.3 to 191.6 °C
O=C(Cc1ccc2c(c1)CC(=O)c1c(O)cc(O)cc1O2)C1=CCCCC1 [Example 66]	173.8 to 175.8 °C
CON=C(C)c1ccc2c(c1)CCc1c(O)cc(O)cc1S2 [Example 138]	176.7 to 177.6 °C
CC1C(=O)c2c(O)cc(O)cc2Sc2ccccc21 (centres unmarked) [Example 39]	152.1 to 153.4 °C
CCC1C(=O)c2cc(O)c(O)cc2Sc2ccc(-c3ccco3)cc21 (centres unmarked) [Example 159]	238.7 to 241.7 °C
O=C1c2c(O)cc(O)cc2Sc2ccccc2C1Cc1ccccc1 (centres unmarked) [Example 40]	67.5 to 68.3 °C

Compound	melting point
O=C1Cc2ccc(-c3ccco3)cc2Oc2cc(O)cc(O)c21 [Example 70]	249.6 to 250.8 °C
Cc1ccccc1-c1ccc2c(c1)CC(=O)c1c(O)cc(O)cc1O2 [Example 62]	91.8 to 94.8 °C
CCC1C(=O)c2cc(O)c(O)cc2Sc2cc(-c3ccc(O)cc3)ccc21 (centres unmarked) [Example 177]	155.4 to 159.4 °C
CCON=C(C)c1ccc2c(c1)CCc1c(O)cc(O)cc1S2 [Example 139]	110.7 to 112.4 °C
CCC1C(=O)c2cc(O)c(O)cc2Sc2cc(-c3cccc([N+](=O)[O-])c3)ccc21 (centres unmarked) [Example 175]	221.8 to 225 °C
O=C1Cc2cc(-c3ccccc3)ccc2Sc2cc(O)cc(O)c21 [Example 78]	190.8 to 195.3 °C
CCC1C(=O)c2cc(O)c(O)cc2Sc2cc(-c3cccc(C(F)(F)F)c3)ccc21 (centres unmarked) [Example 156]	109.7 to 111.9 °C
Cc1ccc(-c2ccc3c(c2)Sc2cc(O)cc(O)c2C(=O)C3)cc1 [Example 86]	228.4 to 235.2 °C
CC(=O)c1cc(-c2ccc3c(c2)CC(=O)c2c(O)cc(O)cc2O3)ccc1C [Example 67]	228.4 to 230.8 °C
O=C(c1ccc2c(c1)CCc1c(O)cc(O)cc1S2)C1CC1 [Example 135]	142.2 to 143.5 °C
O=C1Cc2ccc(-c3ccc(O)c(O)c3)cc2Oc2cc(O)cc(O)c21 [Example 98]	229.8 to 231.6 °C
CCC1C(=O)c2c(O)cc(O)cc2Sc2ccc(SC)cc21 (centres unmarked) [Example 35]	167.4 to 168.2 °C
Oc1cc(O)c2c(c1)Oc1cc(-c3cccc(C(F)(F)F)c3)ccc1CC2 [Example 117]	150.2 to 152.6 °C
O=C1Cc2cc(-c3cccnc3)ccc2Oc2cc(O)cc(O)c21 [Example 55]	293.9 to 300.1 °C
CCC1C(=O)c2cc(O)c(O)cc2Sc2cc(-c3ccccc3C)ccc21 (centres unmarked) [Example 158]	179.2 to 181.1 °C
O=C1Cc2ccc(-c3cccc(Cl)c3)cc2Oc2cc(O)cc(O)c21 [Example 69]	199.9 to 201.4 °C
Nc1cccc(-c2ccc3c(c2)CC(=O)c2c(O)cc(O)cc2O3)c1 [Example 59]	> 300 °C (dec.)
OCCCc1ccc2c(c1)CCc1c(O)cc(O)cc1O2 [Example 103]	153.3 to 154.8 °C
CCC1C(=O)c2cc(O)c(O)cc2Sc2ccc(SC)cc21 (centres unmarked) [Example 36]	199.6 to 200.5 °C
Oc1cc(O)c2c(c1)Sc1cc(-c3cccs3)ccc1CC2 [Example 123]	196.1 to 198.5 °C
CSc1ccc2c(c1)C=Cc1c(O)cc(O)cc1S2 [Example 28]	182.9 to 184.4 °C
O=C1Cc2ccc(-c3ccc(O)cc3O)cc2Oc2cc(O)cc(O)c21 [Example 100]	239.1 to 242.6 °C
O=C1Cc2ccc(-c3cc4ccccc4o3)cc2Oc2cc(O)cc(O)c21 [Example 95]	257.9 to 259.9 °C
O=C1Cc2ccc(-c3cc4ccccc4o3)cc2Sc2cc(O)cc(O)c21 [Example 92]	251.6 to 253.8 °C
Oc1cc(O)c2c(c1)Oc1cc(-c3ccccc3)ccc1CC2 [Example 7, 7-Phenyl-10,11-dihydrodibenz[b,f]oxepin-1,3-diol]	179.6 to 180.4 °C
CCCCC(=O)c1ccc2c(c1)CCc1c(O)cc(O)cc1O2 [Example 130]	119.8 to 121.7 °C
Oc1cc(O)c2c(c1)Oc1cc(-c3ccco3)ccc1CC2 [Example 115]	198.6 to 201.1 °C

Compound	melting point
O=C1Cc2cc(-c3cccc([N+](=O)[O-])c3)ccc2Oc2cc(O)cc(O)c21 [Example 56]	244.3 to 250.7 °C
CCC1C(=O)c2cc(O)c(O)cc2Sc2cc(-c3ccccc3)ccc21 (centres unmarked) [Example 154]	274.3 to 276.1 °C
CCC1C(=O)c2cc(O)c(O)cc2Sc2cc(-c3ccc(-c4ccccc4)cc3)ccc21 (centres unmarked) [Example 171]	> 300 °C
O=C1Cc2ccc(-c3cccs3)cc2Sc2cc(O)cc(O)c21 [Example 81]	214.3 to 215.3 °C
CCC1C(=O)c2cc(O)c(O)cc2Sc2ccc(-c3ccccc3)cc21 (centres unmarked) [Example 163]	225.7 to 227.3 °C
O=C1Cc2ccc(CCc3ccccc3)cc2Oc2cc(O)cc(O)c21 [Example 51]	125.9 to 127.7 °C
CCC1C(=O)c2cc(O)c(O)cc2Sc2cc(-c3ccc(C)cc3)ccc21 (centres unmarked) [Example 160]	271.9 to 273.3 °C
CCC1=Cc2cc(O)c(O)cc2Sc2ccccc21 [Example 143]	37.9 to 41.5 °C
Cc1ccc(-c2ccc3c(c2)Oc2cc(O)cc(O)c2CC3)cc1 [Example 112]	195.1 to 197.1 °C
CCCCCCc1ccc2c(c1)CCc1c(O)cc(O)cc1O2	135.6 to 137.6 °C
CSc1ccc2c(c1)CCc1c(O)cc(O)cc1S2 [Example 2, 8-Methylthio-10,11-dihydrodibenzo[b,f]thiepin-1,3-diol]	161.6 to 163.9 °C
O=C1Cc2ccc(C#Cc3ccccc3)cc2Oc2cc(O)cc(O)c21 [Example 101]	189.4 to 191.1 °C
O=C1Cc2ccc(-c3cccs3)cc2Oc2cc(O)cc(O)c21 [Example 5, 3-(2-Thiophene)-7,9-dihydroxy-10,11-dihydrodibenz[b,f]oxepin-10-one]	227.6 to 228.1 °C
CCC1C(=O)c2cc(O)c(O)cc2Sc2cc(Br)ccc21 (centres unmarked) [Example 45]	227.2 to 229.9 °C
Cc1ccccc1-c1ccc2c(c1)Sc1cc(O)cc(O)c1C(=O)C2 [Example 89]	178.1 to 198.3 °C
Cc1ccc(-c2ccc3c(c2)CC(=O)c2c(O)cc(O)cc2O3)cc1 [Example 60]	174 to 175 °C
O=C1Cc2cc(-c3cccc([N+](=O)[O-])c3)ccc2Sc2cc(O)cc(O)c21 [Example 80]	> 250 °C (dec.)
O=C1Cc2cc(-c3ccc(O)cc3O)ccc2Oc2cc(O)cc(O)c21 [Example 77]	212.6 to 215.7 °C
CCC1C(=O)c2cc(O)c(O)cc2Sc2cc(-c3cc4ccccc4o3)ccc21 (centres unmarked) [Example 168]	293.2 °C (dec.)
CCC1C(=O)c2cc(O)c(O)cc2Sc2cc(-c3ccc(OC(F)(F)F)cc3)ccc21 (centres unmarked) [Example 169]	216.8 to 219.1 °C
O=C1Cc2cc(-c3ccccc3)ccc2Oc2cc(O)cc(O)c21 [Example 54]	170.3 to 172 °C
O=C(c1ccc2c(c1)CCc1c(O)cc(O)cc1S2)C1CCC1 [Example 134]	141.2 to 141.7 °C
CCC1C(=O)c2cc(O)c(O)cc2Sc2cc(SC)ccc21 (centres unmarked) [Example 46]	179.8 to 183 °C
O=C1Cc2cc(Br)ccc2Sc2cc(O)cc(O)c21 [Example 13]	236.4 to 237.3 °C
CC(=O)c1ccc(-c2ccc3c(c2)CC(=O)c2c(O)cc(O)cc2O3)cc1 [Example 65]	274 to 279 °C (dec.)
O=C1Cc2ccc(-c3cccc(C(F)(F)F)c3)cc2Sc2cc(O)cc(O)c21 [Example 91]	225.3 to 226.5 °C
